# According to patent US20250195681A1, “ANTI-GPC3 ANTIBODY DRUG CONJUGATE AND USE THEREOF” (DUALITY BIOLOGICS (SUZHOU) CO., LTD., priority 2022, published 2025):
# Tests used:
# [1] = system: NCI-N87; experiment: In vitro proliferation inhibition of small molecule payloads, CTG, 6 days (3.3); type: cell-based; conditions: Homo sapiens, NCI-N87, 144 h, read-out: Abs-IC50 NCI-N87
# Experimental: (§1) To detect the in vitro proliferation inhibitory activity of the drug compounds on NCI-N87 and Colo205 tumor cells. Cells were treated with different concentrations of the compounds in vitro, and after 6 days of culture, cell proliferation was detected using the CTG (CellTiter-Glo® Luminescent Cell Viability Assay, Promega, Cat. No.: G7558) reagent. The IC50 value was used to assess the in vitro activity of the compounds.
# (§2) 1. Cell culture: NCI-N87 and Colo205 cells were cultured in RPMI-1640 medium containing 10% FBS.
# (§3) 2. Cell preparation: NCI-N87 and Colo205 cells in the logarithmic growth phase were washed once with PBS, then digested with 2-3 mL of trypsin for 2-3 minutes. Once the cells were fully digested, 10-15 mL of cell culture medium was added to wash off the digested cells. The mixture was then centrifuged at 1000 rpm for 5 minutes, then the supernatant was discarded, and the cells were resuspended in 10-20 mL of cell culture medium to prepare a single-cell suspension.
# (§4) 3. Cell plating: The single-cell suspension of NCI-N87 and Colo205 was mixed well, and the density of viable cells was adjusted to 6×10^4 cells/mL using a cell culture medium. The density-adjusted cell suspension was mixed well and added to a 96-well cell culture plate at 50 μL per well. The culture plate was incubated in an incubator for 18 hours (37° C., 5% CO2).
# (§5) 4. Compound preparation: The compounds were dissolved in DMSO to prepare stock solutions with an initial concentration of 10 mM.
# (§6) Eight concentrations of the small molecule compounds were prepared: 300, 100, 30, 10, 3, 1, 0.3, and 0.1 nM.
# (§7) 5. Sample addition operation: The prepared samples at different concentrations were added to a culture plate, with two replicate wells for each sample. The culture plate was incubated in an incubator for 6 days (37° C., 5% CO2).
# 6. […]
# (§8) 7. Plate reading operation: The 96-well cell culture plate was placed in a microplate reader, and the chemiluminescence was measured with the microplate reader.
# (§9) Data analysis: The data were processed and analyzed using Microsoft Excel and GraphPad Prism 5.
# [2] = system: Colo205; experiment: as above; type: cell-based; conditions: Homo sapiens, COLO 205, 144 h, read-out: Abs-IC50 Colo205
# Experimental: as §1, §2, §3, §4, §5, §6, §7
# 6. […]
# as §8, §9
# [3] = system: JIMT-1; experiment: In vitro proliferation inhibition of small molecule payloads, CTG, 6 days (3.2); type: cell-based; conditions: Homo sapiens, JIMT-1, 144 h, read-out: JIMT-1 IC50
# Experimental: as §1, with “NCI-N87, JIMT-1,” for “NCI-N87”, “MBA-MB-231” for “Colo205”
# 1. Cell culture: NCI-N87, JIMT-1, and MBA-MB-231 cells were cultured in RPMI-1640 medium containing 10% FBS.
# 2. Cell preparation: NCI-N87, JIMT-1, and MBA-MB-231 cells in the logarithmic growth phase were washed once with PBS, then digested with 2-3 mL of trypsin for 2-3 minutes. […]
# as §8, §9
# 8. Data analysis: The cell viability was calculated using the formula: Vsample/Vvehicle control x 100% where Vsample represents the reading from the drug-treated group, and Vvehicle control represents the average value of the vehicle control group. GraphPad Prism software was used to plot the S-shaped dose-viability curve using a nonlinear regression model, and the IC50 values were calculated.
# [4] = system: advanced liver cancer; conditions: patients with high GPC3 expression; cited from earlier work
# [5] = system: advanced liver cancer; conditions: Phase II; cited from earlier work
molecule,measurement,setting,value
CC[C@@]1(O)C(=O)OCc2c1cc1n(c2=O)Cc2c-1nc1cc(F)c(C)c3c1c2[C@@H](NC(=O)CCO)CC3 [Preparation Example 8],IC50,[1],15.1 nM
"CC[C@@]1(O)C(=O)OCc2c1cc1n(c2=O)Cc2c-1nc1cc(F)c(C)c3c1c2[C@@H](NC(=O)CO)CC3 [Preparation Example 9, DXd, reference compound]",IC50,[2],294 nM
same,IC50,[1],13.9 nM
CC[C@@]1(O)C(=O)OCc2c1cc1n(c2=O)Cc2c-1nc1cc(F)c(C)c3c1c2[C@@H](NC(=O)CCN)CC3 [Reference Example 1],IC50,[3],36.2 nM
Codrituzumab,disease progression (in words),[4],showed a trend of delayed disease progression
same,survival (in words),[5],did not demonstrate a statistically significant improvement in survival
